Test results published in US9695155B2, “Herbicidal substituted pyrimidinyloxy benzene compounds” (E. I. DU PONT DE NEMOURS AND COMPANY, priority 2013, dated 2017).

Assays:
[1] = tested on: speedwell; test: Test D preemergence; type: in vivo, Veronica persica; conditions: Veronica persica, pre-emergence; for pest or weed control at 16 g/ha: 16 g ai/ha
Outline: (§1)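 Solvent/surfactant formulations are sprayed pre (silt loam) or post (1–4 leaf plants, 2–18 cm). Plants stay 7–21 days in controlled conditions before a visual 0–100 score is given.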

[2] = tested on: spring wheat; test: Test D preemergence; type: in vivo, Triticum aestivum; conditions: Triticum aestivum, pre-emergence; for plant injury at 16 g/ha: 16 g ai/ha; for plant injury at 16 g/ha / plant injury at 31 g/ha: scale 0 (no effect) to 100 (complete control), read-out: Plant response rating, Wheat, Spring; for plant injury at 31 g/ha: 31 g ai/ha; for plant injury at 62 g/ha: 62 g ai/ha; for plant injury at 125 g/ha: 125 g ai/ha
Outline: as §1

[3] = tested on: winter wheat; test: Test D preemergence; type: in vivo, Triticum aestivum; conditions: Triticum aestivum, pre-emergence; for plant injury at 16 g/ha: 16 g ai/ha; for plant injury at 16 g/ha / plant injury at 31 g/ha: scale 0 (no effect) to 100 (complete control), read-out: Plant response rating, Wheat, Winter; for plant injury at 31 g/ha: 31 g ai/ha; for plant injury at 62 g/ha: 62 g ai/ha; for plant injury at 125 g/ha: 125 g ai/ha
Outline: as §1

[4] = tested on: field poppy; test: Test D postemergence; type: in vivo, Papaver rhoeas; conditions: Papaver rhoeas, post-emergence; for pest or weed control at 16 g/ha: 16 g ai/ha, scale 0-100, read-out: Plant response rating, Field Poppy; for pest or weed control at 31 g/ha: 31 g ai/ha; for pest or weed control at 62 g/ha: 62 g ai/ha; for pest or weed control at 125 g/ha: 125 g ai/ha
Outline: as §1

[5] = tested on: deadnettle; test: Test D preemergence; type: in vivo, Lamium amplexicaule; conditions: Lamium amplexicaule, pre-emergence; for pest or weed control at 16 g/ha: 16 g ai/ha, scale 0 (no effect) to 100 (complete control), read-out: Plant response rating, Deadnettle; for pest or weed control at 31 g/ha: 31 g ai/ha; for pest or weed control at 62 g/ha: 62 g ai/ha; for pest or weed control at 125 g/ha: 125 g ai/ha
Outline: as §1

[6] = tested on: wild radish; test: Test D preemergence; type: in vivo, Raphanus raphanistrum; conditions: Raphanus raphanistrum, pre-emergence; for pest or weed control at 16 g/ha: 16 g ai/ha; for pest or weed control at 16 g/ha / pest or weed control at 31 g/ha: scale 0 (no effect) to 100 (complete control), read-out: Plant response rating, Radish, Wild; for pest or weed control at 31 g/ha: 31 g ai/ha; for pest or weed control at 62 g/ha: 62 g ai/ha; for pest or weed control at 125 g/ha: 125 g ai/ha
Outline: as §1

[7] = tested on: bluegrass; test: Test D postemergence; type: in vivo, Poa annua; conditions: Poa annua, post-emergence, Postemergence, scale 0 to 100 (0 no effect, 100 complete control), read-out: Plant response rating, Bluegrass; for pest or weed control at 16 g/ha: 16 g ai/ha; for pest or weed control at 31 g/ha: 31 g ai/ha; for pest or weed control at 62 g/ha: 62 g ai/ha; for pest or weed control at 125 g/ha: 125 g ai/ha
Outline: as §1

[8] = tested on: field violet; test: Test D postemergence; type: in vivo, Viola arvensis; conditions: Viola arvensis, post-emergence; for pest or weed control at 16 g/ha: 16 g ai/ha, scale 0-100, read-out: Plant response rating, Field Violet; for pest or weed control at 31 g/ha: 31 g ai/ha; for pest or weed control at 62 g/ha: 62 g ai/ha; for pest or weed control at 125 g/ha: 125 g ai/ha
Outline: as §1

[9] = tested on: wild oat; test: Test D preemergence; type: in vivo, Avena fatua; conditions: Avena fatua, pre-emergence; for pest or weed control at 16 g/ha: 16 g ai/ha, scale 0 (no effect) to 100 (complete control), read-out: Plant response rating, Oat, Wild; for pest or weed control at 31 g/ha: 31 g ai/ha; for pest or weed control at 62 g/ha: 62 g ai/ha; for pest or weed control at 125 g/ha: 125 g ai/ha
Outline: as §1

[10] = scale 0 (no effect) to 100 (complete control), read-out: Plant response rating, Speedwell
[11] = scale 0-100, read-out: Plant response rating, Wheat, Spring
[12] = scale 0-100, read-out: Plant response rating, Wheat, Winter
[13] = scale 0 to 100 (0 no effect, 100 complete control), read-out: Plant response rating, Field Poppy
[14] = scale 0-100, read-out: Plant response rating, Deadnettle
[15] = scale 0-100, read-out: Plant response rating, Radish, Wild
[16] = scale 0 to 100 (0 no effect, 100 complete control), read-out: Plant response rating, Field Violet
[17] = scale 0-100, read-out: Plant response rating, Oat, Wild

Work on FC(F)(F)COc1cnn(-c2ccccc2Oc2ncc(Cl)cn2)c1 [Compound 138, 5-chloro-2-[2-[4-(2,2,2-trifluoroethoxy)-1H-pyrazol-1-yl]phenoxy]pyrimidine] yielded a pest or weed control at 16 g/ha [1, 10] of 70%, a pest or weed control at 31 g/ha ([1]; 31 g ai/ha, scale 0 (no effect) to 100 (complete control), read-out: Plant response rating, Speedwell) of 100% and a pest or weed control at 62 g/ha ([1]; 62 g ai/ha, scale 0-100, read-out: Plant response rating, Speedwell) of 100%. The pest or weed control at 125 g/ha ([1]; 125 g ai/ha, scale 0-100, read-out: Plant response rating, Speedwell) was 100%, the plant injury at 16 g/ha [2] was 0% and the plant injury at 31 g/ha [2] was 10%. The plant injury at 62 g/ha [2, 11] was 15%, the plant injury at 125 g/ha [2, 11] was 15% and the plant injury at 16 g/ha [3] was 0%. It also gave a plant injury at 31 g/ha [3] of 5%, a plant injury at 62 g/ha [3, 12] of 5% and a plant injury at 125 g/ha [3, 12] of 5%. The pest or weed control at 16 g/ha [4] was 30%, the pest or weed control at 31 g/ha [4, 13] was 35% and the pest or weed control at 62 g/ha [4, 13] was 40%. The pest or weed control at 125 g/ha [4, 13] was 75%, the pest or weed control at 16 g/ha [5] was 5% and the pest or weed control at 31 g/ha [5, 14] was 5%. The pest or weed control at 62 g/ha [5, 14] was 20%, the pest or weed control at 125 g/ha [5, 14] was 30% and the pest or weed control at 16 g/ha [6] was 90%. The pest or weed control at 31 g/ha [6] was 85%, the pest or weed control at 62 g/ha [6, 15] was 70% and the pest or weed control at 125 g/ha [6, 15] was 85%. It also gave a pest or weed control at 16 g/ha [7] of 0%, a pest or weed control at 31 g/ha [7] of 5% and a pest or weed control at 62 g/ha [7] of 5%. For the same compound, the pest or weed control at 125 g/ha [7] was 10%, the pest or weed control at 16 g/ha [8] was 25% and the pest or weed control at 31 g/ha [8, 16] was 50%. The pest or weed control at 62 g/ha [8, 16] was 65%, the pest or weed control at 125 g/ha [8, 16] was 75% and the pest or weed control at 16 g/ha [9] was 0%. It also gave a pest or weed control at 31 g/ha [9, 17] of 0%, a pest or weed control at 62 g/ha [9, 17] of 0% and a pest or weed control at 125 g/ha [9, 17] of 0%.

In the case of FC(F)(F)c1cnn(-c2ccccc2Oc2ncc(Br)cn2)c1 [Compound 18, 5-bromo-2-[2-[4-(trifluoromethyl)-1H-pyrazol-1-yl]phenoxy]pyrimidine], the pest or weed control at 16 g/ha [1, 10] is reported as 50%, the plant injury at 16 g/ha [2] is reported as 0% and the plant injury at 31 g/ha [2] is reported as 0%. The plant injury at 62 g/ha [2, 11] was 0%, the plant injury at 125 g/ha [2, 11] was 5% and the plant injury at 250 g/ha ([2]; 250 g ai/ha, scale 0-100, read-out: Plant response rating, Wheat, Spring) was 15%. It also gave a plant injury at 16 g/ha [3] of 0%, a plant injury at 31 g/ha [3] of 0% and a plant injury at 62 g/ha [3, 12] of 5%. The plant injury at 125 g/ha [3, 12] was 5%, the plant injury at 250 g/ha ([3]; 250 g ai/ha, scale 0-100, read-out: Plant response rating, Wheat, Winter) was 40% and the pest or weed control at 16 g/ha [4] was 80%. For the same compound, the pest or weed control at 31 g/ha [4, 13] was 75%, the pest or weed control at 62 g/ha [4, 13] was 75% and the pest or weed control at 125 g/ha [4, 13] was 100%. The pest or weed control at 250 g/ha ([4]; 250 g ai/ha, scale 0 to 100 (0 no effect, 100 complete control), read-out: Plant response rating, Field Poppy) was 100%, the pest or weed control at 16 g/ha [5] was 10% and the pest or weed control at 31 g/ha [5, 14] was 5%. The pest or weed control at 62 g/ha [5, 14] was 55%, the pest or weed control at 125 g/ha [5, 14] was 70% and the pest or weed control at 250 g/ha ([5]; 250 g ai/ha, scale 0-100, read-out: Plant response rating, Deadnettle) was 100%. It also gave a pest or weed control at 16 g/ha [6] of 100%, a pest or weed control at 31 g/ha [6] of 100% and a pest or weed control at 62 g/ha [6, 15] of 100%. It also gave a pest or weed control at 125 g/ha [6, 15] of 100%, a pest or weed control at 250 g/ha ([6]; 250 g ai/ha, scale 0-100, read-out: Plant response rating, Radish, Wild) of 100% and a pest or weed control at 16 g/ha [7] of 15%. The pest or weed control at 31 g/ha [7] was 25%, the pest or weed control at 62 g/ha [7] was 30% and the pest or weed control at 125 g/ha [7] was 40%. It also gave a pest or weed control at 250 g/ha ([7]; 250 g ai/ha) of 40%, a pest or weed control at 16 g/ha [8] of 55% and a pest or weed control at 31 g/ha [8, 16] of 80%. It also gave a pest or weed control at 62 g/ha [8, 16] of 65%, a pest or weed control at 125 g/ha [8, 16] of 80% and a pest or weed control at 250 g/ha ([8]; 250 g ai/ha, scale 0 to 100 (0 no effect, 100 complete control), read-out: Plant response rating, Field Violet) of 90%. It also gave a pest or weed control at 16 g/ha [9] of 0%, a pest or weed control at 31 g/ha [9, 17] of 0% and a pest or weed control at 62 g/ha [9, 17] of 0%. The pest or weed control at 125 g/ha [9, 17] was 5% and the pest or weed control at 250 g/ha ([9]; 250 g ai/ha, scale 0-100, read-out: Plant response rating, Oat, Wild) was 30%.
